Source: PubChem BioAssay (NCI)
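How tested: cells in 96-well plates exposed to compound for 48 hours at five concentrations. GI50 marks 50% less growth. TGI marks complete inhibition of growth.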 Starred links: 1 amine or outer side, 2 acyl side, 3 side chain; linkers in the order of their positions; H or OH if unused. Positions of bridges follow the written chain, without caps; N, C: chain ends. Non-standard residues stand in square brackets, D forms with d. Residues, ends and D or L forms follow the SMILES beside them. Chains are numbered I, II in the order given. Actinocin(1to9) = Cc1c2oc3c(C)ccc(C(=O)[*:2])c3nc-2c(C(=O)[*:1])c(N)c1=O; NMeV = CN[CH](C(=O)O)C(C)C; Sar = CNCC(=O)O

Legend:
Test in all cases: inhibition of tumour cell growth, NCI panel, 48 h
SK-OV-3 ovarian = test system: SK-OV-3 ovarian
SF-295 CNS = test system: SF-295 CNS
TK-10 renal = test system: TK-10 renal
M14 melanoma = test system: M14 melanoma
HOP-92 NSCLC = test system: HOP-92 NSCLC
KM12 colon = test system: KM12 colon
MALME-3M melanoma = test system: MALME-3M melanoma
NCI-H460 lung = test system: NCI-H460 lung
SNB-19 CNS = test system: SNB-19 CNS
HCT-15 colon = test system: HCT-15 colon

SMILES | TGI (SK-OV-3 ovarian) [µM] | TGI (SF-295 CNS) [µM] | TGI (TK-10 renal) [µM] | TGI (M14 melanoma) [µM] | TGI (HOP-92 NSCLC) [µM] | TGI (KM12 colon) [µM] | TGI (MALME-3M melanoma) [µM] | TGI (NCI-H460 lung) [µM] | TGI (SNB-19 CNS) [µM] | TGI (HCT-15 colon) [µM] | GI50 (HCT-15 colon) [nM] | GI50 (SK-OV-3 ovarian) [µM] | GI50 (SF-295 CNS) [µM] | GI50 (TK-10 renal) [µM] | GI50 (M14 melanoma) [µM] | GI50 (HOP-92 NSCLC) [µM] | GI50 (KM12 colon) [µM] | GI50 (MALME-3M melanoma) [µM] | GI50 (NCI-H460 lung) [µM] | GI50 (SNB-19 CNS) [µM]
CN(C)c1ccc(C=Nc2ccc(-c3nc4ccccc4[nH]3)cc2)cc1 | > 100 | > 100 | > 100 | > 100 | > 100 | > 100 | > 100 | > 100 | > 100 | > 100 | – | – | – | – | – | – | – | – | – | –
CCC(C)C1NC(=O)C(NC(=O)c2c3nc4c(C(=O)NC5C(=O)NC(C(C)CC)C(=O)N6CCCC6C(=O)N(C)CC(=O)N(C)C(C(C)C)C(=O)OC5C)ccc(C)c4oc-3c(C)c(=O)c2N)C(C)OC(=O)C(C(C)C)N(C)C(=O)CN(C)C(=O)C2CCCN2C1=O (centres undefined) (I: TIP[Sar][NMeV] / II: TIP[Sar][NMeV]; ester I:1-I:C, II:1-II:C; linker I:N-II:N via Actinocin(1to9); configuration not given here) | 0.578 | – | 0.0755 | 0.0272 | 0.085 | 0.194 | 0.0202 | – | 0.0111 | 10.3 | 10.9 | – | – | – | – | – | – | – | – | –
Cn1c(=O)[nH]c2nncnc2c1=O | 498 | 325 | – | – | 71.2 | > 353 | 119 | 245 | 419 | > 625 | – | – | – | – | – | – | – | – | – | –
Cc1ccccc1N=Nc1c(O)c(S(=O)(=O)O)cc2cc(S(=O)(=O)O)ccc12 | > 100 | > 100 | > 100 | > 100 | > 100 | > 100 | > 100 | > 100 | > 100 | > 100 | – | – | – | – | – | – | – | – | – | –
Clc1ccccc1/C=c1\nc(-c2ccccc2)n2c1nc1ccccc12 | 71.7 | 31.2 | > 100 | > 100 | > 100 | > 100 | > 100 | > 100 | > 100 | > 100 | – | – | – | – | – | – | – | – | – | –
CC(=O)OC1CC[C@@]2(C)C(=CC[C@@H]3[C@@H]2CC[C@]2(C)Nc4nn(S(C)(=O)=O)cc4C[C@@H]32)C1 (some centres undefined) | > 100 | > 100 | – | 36.3 | > 100 | 81.8 | 78.6 | 72.5 | > 100 | 89.4 | – | – | – | – | – | – | – | – | – | –
CC(C)(C)OC(=O)NC(CCCCNC(=O)OCc1ccccc1)C(=O)NCCNc1ccc(NCCNC(=O)C(CCCCNC(=O)OCc2ccccc2)NC(=O)OC(C)(C)C)c2c1C(=O)c1ccccc1C2=O (centres undefined) | > 90.1 | > 100 | > 100 | > 100 | > 71.4 | > 100 | > 100 | > 100 | 45.9 | > 100 | – | – | – | – | – | – | – | – | – | –
O=C(CSc1nc2ccc([N+](=O)[O-])cc2s1)c1ccc2ccccc2c1 | > 100 | > 100 | > 100 | > 100 | > 100 | > 100 | > 100 | > 100 | > 100 | > 100 | – | – | – | – | – | – | – | – | – | –
OCc1cn(C(c2ccccc2)(c2ccccc2)c2ccccc2)cn1 | > 100 | 89.7 | > 100 | > 100 | > 100 | – | – | > 100 | > 100 | > 100 | – | – | – | – | – | – | – | – | – | –
O=C(O)c1ccc(C(=O)c2ccccc2C(=O)O)cc1C(=O)O | > 100 | > 100 | > 100 | > 100 | > 100 | > 100 | > 100 | > 100 | > 100 | > 100 | – | – | – | – | – | – | – | – | – | –
Nc1c(C(=O)O)nnc2cc(Cl)c(Cl)cc12 | > 100 | > 100 | > 100 | > 100 | – | > 100 | > 100 | > 100 | > 100 | > 100 | – | – | – | – | – | – | – | – | – | –
COc1nc2[nH]ccc2c(=O)[nH]1 | – | > 100 | > 100 | > 100 | > 100 | > 100 | > 100 | > 100 | > 100 | – | – | – | – | – | – | – | – | – | – | –
COCC1CCCN1c1ccc(C=N/C(C#N)=C(\N)C#N)cc1 (centres undefined) | > 100 | > 100 | > 100 | > 100 | 46 | > 100 | > 100 | > 100 | > 100 | – | – | 27.5 | > 100 | 49.2 | > 100 | 14.3 | > 100 | 7.75 | > 100 | 36.7
